Reference: patent US20240254082A1, “Substituted Isoindoline-1, 3-diketone PDE4 Inhibitor and Pharmaceutical Application Thereof” (SUZHOU INTRAGRAND PHARMA CO., LTD, priority 2021, published 2024)

Key:
Assay type in all cases: biochemical
PDE4D3 = PDE4D3 (Homo sapiens, UniProt Q08499); experiment: Inhibition assay of PDE4D3 enzyme (TR-FRET kit)
Experimental: 2. Inhibition assay of PDE4D3 enzyme:
Materials and Instruments:
FAM substrate: A stock solution of 20 μM FAM substrate was diluted to 200 nM with PDE assay buffer. 12.5 μL of the diluted substrate was added to each reaction well.
5 μL of the compound stock solution was added to 45 μL of DMSO to prepare a 1 mM diluent. 5 μL of the 1 mM diluent was added to 45 μL of PDE assay buffer to prepare a gradient dilution starting point. Then, according to the method of adding 5 μL of the previous concentration solution to 15 μL of PDE assay buffer, gradient dilution was carried out for 9 times to prepare compound working solutions with 10 concentrations. The working solutions were added to compound wells at 2.5 μL/well.
PDE4D3: 0.054 μL of a PDE4D3 recombinase stock solution was added to 1500 μL of PDE buffer, and the mixture was added to all compound wells and positive control wells at 10 μL/well. 10 μL of PDE assay buffer was added to substrate control wells.
Binding solution: 3750 μL of binding buffer A and 3750 μL of binding buffer B were mixed well. Then, 150 μL of a binder was added into the mixture and mixed well. 7.5 μL of a Tb donor was added and mixed well. The obtained mixture was added to all wells at 50 μL/well.
S520=Read value of sample 520 nm
S490=Read value of sample 490 nm
Tb520=Read value of Tb only 520 nm
Tb490=Read value of Tb only 490 nm
FRETp=Positive control FRET
FRETsub=Substrate control FRET.

PDE3B = PDE3B (Homo sapiens, UniProt Q13370); experiment: Selective inhibitory activity assay, PDE3B; conditions: read-out: Inhibition rate (%) of PDE3B
Chain of PDE3B (Q13370 whole entry, species assumed): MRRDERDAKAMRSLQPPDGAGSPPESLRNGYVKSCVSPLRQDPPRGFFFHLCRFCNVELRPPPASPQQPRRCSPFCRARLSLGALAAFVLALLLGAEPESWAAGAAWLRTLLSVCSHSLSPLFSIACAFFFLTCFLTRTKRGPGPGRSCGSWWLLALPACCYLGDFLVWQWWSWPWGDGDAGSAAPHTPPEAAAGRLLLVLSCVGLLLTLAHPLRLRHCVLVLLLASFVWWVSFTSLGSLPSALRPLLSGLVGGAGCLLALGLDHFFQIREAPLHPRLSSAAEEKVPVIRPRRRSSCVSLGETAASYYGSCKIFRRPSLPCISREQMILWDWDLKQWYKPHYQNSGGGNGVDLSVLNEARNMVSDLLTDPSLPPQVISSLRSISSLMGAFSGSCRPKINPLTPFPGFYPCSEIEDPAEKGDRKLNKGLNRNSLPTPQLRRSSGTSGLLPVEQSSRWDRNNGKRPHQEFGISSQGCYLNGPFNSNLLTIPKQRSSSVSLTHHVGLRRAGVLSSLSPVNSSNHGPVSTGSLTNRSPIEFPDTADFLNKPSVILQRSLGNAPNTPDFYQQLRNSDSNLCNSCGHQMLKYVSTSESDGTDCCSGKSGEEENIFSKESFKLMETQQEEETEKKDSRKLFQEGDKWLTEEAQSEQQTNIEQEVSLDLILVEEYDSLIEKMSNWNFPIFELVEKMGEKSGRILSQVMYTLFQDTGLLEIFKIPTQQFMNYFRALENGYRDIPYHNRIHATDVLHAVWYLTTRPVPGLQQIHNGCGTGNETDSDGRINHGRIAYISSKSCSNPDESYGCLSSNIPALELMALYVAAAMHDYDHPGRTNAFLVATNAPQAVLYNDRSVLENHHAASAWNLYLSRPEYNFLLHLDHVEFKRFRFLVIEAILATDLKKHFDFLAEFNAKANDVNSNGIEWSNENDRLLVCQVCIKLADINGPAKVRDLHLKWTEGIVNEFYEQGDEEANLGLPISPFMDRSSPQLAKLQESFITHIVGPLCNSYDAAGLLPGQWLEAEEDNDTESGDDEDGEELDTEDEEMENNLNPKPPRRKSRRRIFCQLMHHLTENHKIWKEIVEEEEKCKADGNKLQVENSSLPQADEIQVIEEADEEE
Experimental: (§1) 7. Selective inhibitory activity assay for PDE1, 2, 3, 5, 7, 10 and 11 enzymes
(§2) The selective specificity of compounds for PDE4 was assessed by assaying single concentrations of the compounds. For example, PDE1a enzyme, PDElc enzyme, PDE2a enzyme, PDE3a enzyme, PDE3b enzyme, PDE5a1 enzyme, PDE7a enzyme, PDE7b enzyme, PDE10a1 enzyme and PDE11a4 enzyme were tested. The selective inhibitory effects of different compounds on the enzymatic activities of PDEIC, PDE2A, PDE3B, PDE5A1, PDE7A, and PDE10A1 at concentrations of 10 μM and 1 μM, respectively, are shown in the table below: […]

PDE5A1 = PDE5A1 (Homo sapiens, UniProt O76074); experiment: Selective inhibitory activity assay, PDE5A1; conditions: read-out: Inhibition rate (%) of PDE5A1
Experimental: as §1, §2

PDE2A = PDE2A (Homo sapiens, UniProt O00408); experiment: Selective inhibitory activity assay, PDE2A; conditions: read-out: Inhibition rate (%) of PDE2A
Chain of PDE2A (O00408 whole entry, species assumed): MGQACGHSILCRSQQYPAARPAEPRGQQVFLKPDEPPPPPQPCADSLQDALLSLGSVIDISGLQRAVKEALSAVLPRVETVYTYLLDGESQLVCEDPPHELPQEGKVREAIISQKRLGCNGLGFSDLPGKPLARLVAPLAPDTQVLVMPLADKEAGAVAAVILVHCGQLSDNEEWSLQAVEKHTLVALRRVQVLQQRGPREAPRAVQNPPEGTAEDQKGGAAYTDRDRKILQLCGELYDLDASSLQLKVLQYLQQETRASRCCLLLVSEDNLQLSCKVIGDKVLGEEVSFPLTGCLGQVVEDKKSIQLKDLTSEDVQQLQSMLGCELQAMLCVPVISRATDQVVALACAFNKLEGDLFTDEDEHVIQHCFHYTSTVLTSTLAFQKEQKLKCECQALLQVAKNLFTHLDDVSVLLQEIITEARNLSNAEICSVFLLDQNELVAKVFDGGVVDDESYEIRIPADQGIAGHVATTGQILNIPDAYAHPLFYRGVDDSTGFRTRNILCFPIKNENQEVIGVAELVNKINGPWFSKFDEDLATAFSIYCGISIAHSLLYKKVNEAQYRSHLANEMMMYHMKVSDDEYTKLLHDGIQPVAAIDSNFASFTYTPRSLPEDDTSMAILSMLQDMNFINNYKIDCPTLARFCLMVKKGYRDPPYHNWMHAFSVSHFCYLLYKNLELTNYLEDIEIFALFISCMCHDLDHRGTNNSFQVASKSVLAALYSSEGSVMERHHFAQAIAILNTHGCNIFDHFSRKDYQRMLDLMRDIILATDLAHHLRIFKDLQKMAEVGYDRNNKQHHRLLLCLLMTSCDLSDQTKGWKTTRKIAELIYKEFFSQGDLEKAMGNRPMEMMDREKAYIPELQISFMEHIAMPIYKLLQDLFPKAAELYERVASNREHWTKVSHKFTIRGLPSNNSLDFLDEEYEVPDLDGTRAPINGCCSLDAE
Experimental: as §1, §2

PDE7A = PDE7A (Homo sapiens, UniProt Q13946); experiment: Selective inhibitory activity assay, PDE7A; conditions: read-out: Inhibition rate (%) of PDE7A
Chain of PDE7A (Q13946 whole entry, species assumed): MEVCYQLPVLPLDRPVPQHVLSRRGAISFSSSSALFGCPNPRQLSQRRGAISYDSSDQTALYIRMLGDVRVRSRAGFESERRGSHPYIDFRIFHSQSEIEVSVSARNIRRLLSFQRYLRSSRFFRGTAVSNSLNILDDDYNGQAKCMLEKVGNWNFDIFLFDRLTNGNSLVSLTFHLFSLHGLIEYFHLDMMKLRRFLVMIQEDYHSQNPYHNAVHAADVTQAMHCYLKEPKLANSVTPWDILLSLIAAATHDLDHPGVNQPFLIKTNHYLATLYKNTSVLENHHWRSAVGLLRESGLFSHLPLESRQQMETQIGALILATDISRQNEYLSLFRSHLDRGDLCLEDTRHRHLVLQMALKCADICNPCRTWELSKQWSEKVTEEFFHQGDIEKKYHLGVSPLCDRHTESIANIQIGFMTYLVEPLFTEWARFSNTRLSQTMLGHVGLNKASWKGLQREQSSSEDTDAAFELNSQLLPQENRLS
Experimental: as §1, §2

PDE1C = PDE1C (Homo sapiens, UniProt Q14123); experiment: Selective inhibitory activity assay, PDE1C; conditions: read-out: Inhibition rate (%) of PDE1C
Chain of PDE1C (Q14123 whole entry, species assumed): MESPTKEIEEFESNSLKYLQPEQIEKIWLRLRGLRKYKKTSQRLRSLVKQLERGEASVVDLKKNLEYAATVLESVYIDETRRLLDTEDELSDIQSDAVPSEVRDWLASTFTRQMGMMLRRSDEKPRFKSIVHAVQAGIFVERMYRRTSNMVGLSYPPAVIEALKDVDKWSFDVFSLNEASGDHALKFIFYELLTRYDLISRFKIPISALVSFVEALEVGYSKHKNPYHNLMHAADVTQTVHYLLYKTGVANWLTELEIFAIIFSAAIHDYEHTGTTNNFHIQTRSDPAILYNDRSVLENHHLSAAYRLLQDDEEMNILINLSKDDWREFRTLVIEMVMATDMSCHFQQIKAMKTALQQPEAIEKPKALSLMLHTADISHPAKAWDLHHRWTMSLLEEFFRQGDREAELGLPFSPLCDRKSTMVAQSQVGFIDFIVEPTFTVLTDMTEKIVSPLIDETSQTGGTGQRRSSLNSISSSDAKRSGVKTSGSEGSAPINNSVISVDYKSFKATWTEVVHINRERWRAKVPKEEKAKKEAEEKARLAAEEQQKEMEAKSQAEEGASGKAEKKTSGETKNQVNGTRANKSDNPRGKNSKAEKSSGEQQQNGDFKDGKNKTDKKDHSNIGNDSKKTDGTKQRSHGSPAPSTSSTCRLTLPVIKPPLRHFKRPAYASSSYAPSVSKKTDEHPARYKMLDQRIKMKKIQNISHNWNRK
Experimental: as §1, §2

PDE10A1 = PDE10A1 (Homo sapiens, UniProt Q9Y233); experiment: Selective inhibitory activity assay, PDE10A1; conditions: read-out: Inhibition rate (%) of PDE10A1
Chain of PDE10A1 (Q9Y233 1-779 isoform Q9Y233-1, species assumed): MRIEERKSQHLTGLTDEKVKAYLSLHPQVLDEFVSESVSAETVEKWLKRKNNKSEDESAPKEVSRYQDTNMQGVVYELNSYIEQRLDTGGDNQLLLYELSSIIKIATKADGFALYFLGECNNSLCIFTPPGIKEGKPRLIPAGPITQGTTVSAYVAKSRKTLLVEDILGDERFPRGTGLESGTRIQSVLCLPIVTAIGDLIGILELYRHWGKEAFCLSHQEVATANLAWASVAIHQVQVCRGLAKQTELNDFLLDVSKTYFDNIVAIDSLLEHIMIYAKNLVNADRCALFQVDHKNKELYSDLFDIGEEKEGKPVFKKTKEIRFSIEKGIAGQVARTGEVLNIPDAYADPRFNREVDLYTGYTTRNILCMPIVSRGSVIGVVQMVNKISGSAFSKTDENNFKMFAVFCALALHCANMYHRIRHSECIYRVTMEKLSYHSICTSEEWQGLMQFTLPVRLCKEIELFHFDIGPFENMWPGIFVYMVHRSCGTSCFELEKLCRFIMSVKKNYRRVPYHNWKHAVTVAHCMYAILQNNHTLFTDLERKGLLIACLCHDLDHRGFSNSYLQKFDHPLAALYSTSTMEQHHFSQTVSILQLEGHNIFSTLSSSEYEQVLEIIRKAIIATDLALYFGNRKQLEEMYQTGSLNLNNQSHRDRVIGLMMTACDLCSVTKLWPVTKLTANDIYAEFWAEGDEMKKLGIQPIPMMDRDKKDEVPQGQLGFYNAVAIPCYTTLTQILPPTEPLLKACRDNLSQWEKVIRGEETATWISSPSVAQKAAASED
Experimental: as §1, §2

Chain of PDE4D3 (Q08499 1-673 isoform Q08499-2): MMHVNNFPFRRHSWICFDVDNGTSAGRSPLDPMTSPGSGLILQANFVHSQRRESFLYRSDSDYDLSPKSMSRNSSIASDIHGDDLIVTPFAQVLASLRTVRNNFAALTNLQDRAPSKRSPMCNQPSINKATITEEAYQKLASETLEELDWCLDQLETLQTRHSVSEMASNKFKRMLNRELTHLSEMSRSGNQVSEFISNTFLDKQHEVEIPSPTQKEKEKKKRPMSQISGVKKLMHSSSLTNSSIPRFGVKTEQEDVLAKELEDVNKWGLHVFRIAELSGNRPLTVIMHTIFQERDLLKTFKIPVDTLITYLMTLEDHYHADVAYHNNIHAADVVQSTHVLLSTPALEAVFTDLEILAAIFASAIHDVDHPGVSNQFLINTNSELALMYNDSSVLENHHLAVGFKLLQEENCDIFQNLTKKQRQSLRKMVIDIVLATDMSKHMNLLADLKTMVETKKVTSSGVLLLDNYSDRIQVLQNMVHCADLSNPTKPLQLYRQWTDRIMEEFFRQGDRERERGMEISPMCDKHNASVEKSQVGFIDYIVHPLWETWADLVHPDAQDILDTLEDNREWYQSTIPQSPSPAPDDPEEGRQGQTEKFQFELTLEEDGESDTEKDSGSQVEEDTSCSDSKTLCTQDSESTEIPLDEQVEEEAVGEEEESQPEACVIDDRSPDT

SMILES | IC50 (PDE4D3) | further results
CCCCCCc1ccc2c(c1NC(=O)CCCCl)C(=O)N([C@H](CS(C)(=O)=O)c1ccc(OC)c(OCC)c1)C2=O [Example 1, (S)-2-[1-(3-ethoxy-4-methoxyphenyl)-2-alkylsulfonylethyl]-4-(γ-chlorobutyramido)-5-hexyl isoindoline-1,3-diketone] | 50 to 200 nM | –
CCCC/C=C/c1ccc2c(c1NC(=O)CCCCl)C(=O)N([C@H](CS(C)(=O)=O)c1ccc(OC)c(OCC)c1)C2=O [Example 2, (S)-2-[1-(3-ethoxy-4-methoxyphenyl)-2-alkylsulfonylethyl]-4-(γ-chlorobutyramido)-5-hexene (−1) yl isoindoline-1,3-diketone] | 10 to 50 nM | –
CCCCCCCCc1cc(NC(=O)C2CC2)c2c(c1)C(=O)N([C@H](CS(C)(=O)=O)c1ccc(OC)c(OCC)c1)C2=O [Example 3, (S)-2-[1-(3-ethoxy-4-methoxyphenyl)-2-alkylsulfonylethyl]-4-cyclopropanamido-5-octyl isoindoline-1,3-diketone] | > 200 nM | –
CCCCCc1ccc(CNC(C)=O)c2c1C(=O)N([C@H](CS(C)(=O)=O)c1ccc(OC)c(OCC)c1)C2=O [Example 4, (S)-2-[1-(3-ethoxy-4-methoxyphenyl)-2-alkylsulfonylethyl]-4-acetamidomethyl-7-pentyl isoindoline-1,3-diketone] | 10 to 50 nM | –
CCCCCc1ccc(NC(=O)C2CC2)c2c1C(=O)N([C@H](CS(C)(=O)=O)c1ccc(OC)c(OCC)c1)C2=O [Example 6, (S)-2-[1-(3-ethoxy-4-methoxyphenyl)-2-alkylsulfonylethyl]-4-cyclopropanamido-7-pentyl isoindoline-1,3-diketone] | 50 to 200 nM | –
CCCC#Cc1ccc(NC(C)=O)c2c1C(=O)N([C@H](CS(C)(=O)=O)c1ccc(OC)c(OCC)c1)C2=O [Example 7] | 10 to 50 nM | inhibition at 1 µM (PDE3B): 1.81%; inhibition at 10 µM (PDE3B): 0.06%; inhibition at 1 µM (PDE5A1): 0%; inhibition at 10 µM (PDE5A1): -2.87%; inhibition at 1 µM (PDE2A): 0.08%; inhibition at 10 µM (PDE2A): 2.65%; inhibition at 1 µM (PDE7A): 3.87%; inhibition at 10 µM (PDE7A): 15.5%; inhibition at 1 µM (PDE1C): 6.8%; inhibition at 10 µM (PDE1C): 26.5%; inhibition at 1 µM (PDE10A1): 0%; inhibition at 10 µM (PDE10A1): 1.3%
CCCCCCCCCC(=O)Nc1cccc2c1C(=O)N([C@H](CS(C)(=O)=O)c1ccc(OC)c(OCC)c1)C2=O [Example 8, (S)-2-[1-(3-ethoxy-4-methoxyphenyl)-2-alkylsulfonylethyl]-4-decanamido-7-pentenyl (−1) isoindoline-1,3-diketone] | 50 to 200 nM | –
CCCCCc1ccc(NC(=O)CCC)c2c1C(=O)N([C@H](CS(C)(=O)=O)c1ccc(OC)c(OCC)c1)C2=O [Example 10, (S)-2-[1-(3-ethoxy-4-methoxyphenyl)-2-alkylsulfonylethyl]-4-butylamido-7-pentyl isoindoline-1,3-diketone] | 50 to 200 nM | –
CCCCCc1ccc(NC(=O)CC(C)C)c2c1C(=O)N([C@H](CS(C)(=O)=O)c1ccc(OC)c(OCC)c1)C2=O [Example 11] | > 200 nM | –
CCCCCC(=O)Nc1ccc(CCCCC)c2c1C(=O)N([C@H](CS(C)(=O)=O)c1ccc(OC)c(OCC)c1)C2=O [Example 12] | > 200 nM | –
CCCCCCCCCCCCCc1ccc(NC(C)=O)c2c1C(=O)N([C@H](CS(C)(=O)=O)c1ccc(OC)c(OCC)c1)C2=O [Example 14, (S)-2-[1-(3-ethoxy-4-methoxyphenyl)-2-alkylsulfonylethyl]-4-acetamido-7-tridecyl isoindoline-1,3-diketone] | > 200 nM | –
CCCCCCCCCCCCCc1ccc(NC(=O)C2CC2)c2c1C(=O)N([C@H](CS(C)(=O)=O)c1ccc(OC)c(OCC)c1)C2=O [Example 15, (S)-2-[1-(3-ethoxy-4-methoxyphenyl)-2-alkylsulfonylethyl]-4-cyclopropanamido-7-tridecyl isoindoline-1,3-diketone] | > 200 nM | –
CCCCCCCCCc1ccc(NC(=O)CCC)c2c1C(=O)N([C@H](CS(C)(=O)=O)c1ccc(OC)c(OCC)c1)C2=O [Example 16, (S)-2-[1-(3-ethoxy-4-methoxyphenyl)-2-alkylsulfonylethyl]-4-butylamido-7-nonyl isoindoline-1,3-diketone] | > 200 nM | –
CCCCCCCCCc1ccc(NC(=O)C2CC2)c2c1C(=O)N([C@H](CS(C)(=O)=O)c1ccc(OC)c(OCC)c1)C2=O [Example 17, (S)-2-[1-(3-ethoxy-4-methoxyphenyl)-2-alkylsulfonylethyl]-4-cyclopropanamido-7-nonyl isoindoline-1,3-diketone] | > 200 nM | –
CCCCCCCCCc1ccc(NC(=O)CC)c2c1C(=O)N([C@H](CS(C)(=O)=O)c1ccc(OC)c(OCC)c1)C2=O [Example 18, (S)-2-[1-(3-ethoxy-4-methoxyphenyl)-2-alkylsulfonylethyl]-4-propanamido-7-nonyl isoindoline-1,3-diketone] | 50 to 200 nM | –
CCCCCCCCCCCCCc1ccc(NC(=O)CC)c2c1C(=O)N([C@H](CS(C)(=O)=O)c1ccc(OC)c(OCC)c1)C2=O [Example 19, (S)-2-[1-(3-ethoxy-4-methoxyphenyl)-2-alkylsulfonylethyl]-4-propanamido-7-tridecyl isoindoline-1,3-diketone] | > 200 nM | –
CCCCCCc1ccc(NC(=O)CCCCl)c2c1C(=O)N([C@H](CS(C)(=O)=O)c1ccc(OC)c(OCC)c1)C2=O [Example 20, (S)-2-[1-(3-ethoxy-4-methoxyphenyl)-2-alkylsulfonylethyl]-4-(γ-chlorobutyramido)-7-hexyl isoindoline-1,3-diketone] | 50 to 200 nM | –
CCCCCCCc1ccc(NC(=O)CCCCl)c2c1C(=O)N([C@H](CS(C)(=O)=O)c1ccc(OC)c(OCC)c1)C2=O [Example 21, (S)-2-[1-(3-ethoxy-4-methoxyphenyl)-2-alkylsulfonylethyl]-4-(γ-chlorobutyramido)-7-heptyl isoindoline-1,3-diketone] | > 200 nM | –
CCCCCCCCc1ccc(NC(=O)CCCCl)c2c1C(=O)N([C@H](CS(C)(=O)=O)c1ccc(OC)c(OCC)c1)C2=O [Example 22, (S)-2-[1-(3-ethoxy-4-methoxyphenyl)-2-alkylsulfonylethyl]-4-(γ-chlorobutyramido)-7-octyl isoindoline-1,3-diketone] | > 200 nM | –
CCCCCCc1ccc2c(c1NC(=O)CC)C(=O)N([C@H](CS(C)(=O)=O)c1ccc(OC)c(OCC)c1)C2=O [Example 23, (S)-2-[1-(3-ethoxy-4-methoxyphenyl)-2-alkylsulfonylethyl]-4-propanamido-6-hexyl isoindoline-1,3-diketone] | 50 to 200 nM | –
CCCCCc1ccc(NC(=O)CCCl)c2c1C(=O)N([C@H](CS(C)(=O)=O)c1ccc(OC)c(OCC)c1)C2=O [Example 24] | 10 to 50 nM | inhibition at 1 µM (PDE3B): 0%; inhibition at 10 µM (PDE3B): -0.81%; inhibition at 1 µM (PDE5A1): 0%; inhibition at 10 µM (PDE5A1): 11.5%; inhibition at 1 µM (PDE2A): 0%; inhibition at 10 µM (PDE2A): 7.79%; inhibition at 1 µM (PDE7A): 0%; inhibition at 10 µM (PDE7A): 4.15%; inhibition at 1 µM (PDE1C): 3.89%; inhibition at 10 µM (PDE1C): 34.5%; inhibition at 1 µM (PDE10A1): 6.04%; inhibition at 10 µM (PDE10A1): 11.4%
CCCCc1ccc(NC(=O)CCl)c2c1C(=O)N([C@H](CS(C)(=O)=O)c1ccc(OC)c(OCC)c1)C2=O [Example 26, (S)-2-[1-(3-ethoxy-4-methoxyphenyl)-2-alkylsulfonylethyl]-4-chloroacetamido-7-butyl isoindoline-1,3-diketone] | 10 to 50 nM | –
CCCCCc1ccc(NC(=O)CO)c2c1C(=O)N([C@H](CS(C)(=O)=O)c1ccc(OC)c(OCC)c1)C2=O [Example 30] | 50 to 200 nM | –
CCCCCc1ccc(NC(=O)COC)c2c1C(=O)N([C@H](CS(C)(=O)=O)c1ccc(OC)c(OCC)c1)C2=O [Example 31] | 50 to 200 nM | –
